Assay results published in patent US20240108739A1, “OLIGOMERIC COMPOUNDS BINDING SPECIFICALLY TO PROTEOGLYCANS” (PHI PHARMA SA, priority 2020, published 2024).
Starred links: 1 amine or outer side, 2 acyl side, 3 side chain; linkers in the order of their positions; H or OH if unused. Positions of bridges follow the written chain, without caps; N, C: chain ends. Non-standard residues stand in square brackets, D forms with d. Chains are numbered I, II in the order given. No end group written: not given here. ξ: configuration not given here. *: point of attachment. X1 = CC1(C)C(/C=C/C(=C/C=C2\N(CCCS(=O)(=O)O)c3ccc(S(=O)(=O)O)cc3C2(C)C)c2cccc(CCC(=O)NCCN3C(=O)CC(*)C3=O)c2)=Nc2c1cc(Cl)c[n+]2CCCS(=O)(=O)[O-]; X3 = N=c1ccc2c(-c3ccc(C(=O)NCCCCCN4C(=O)CC(*)C4=O)cc3C(=O)O)c3ccc(N)c(S(=O)(=O)O)c3oc-2c1S(=O)(=O)O; NH(CH2CH2O)5CH2CO = O=C(COCCOCCOCCOCCOCCN[*:1])[*:2]; ξIle = CC[C@H](C)C(N)C(=O)O; Orn = NCCC[C@H](N)C(=O)O; AEA = NCCOCC(=O)O

Assays:
CHO-K1 (WT) cells = assay: Flow cytometry binding of 680RD-labelled PEG variants to CHO cells (Example 4); type: cell-based; conditions: 680RD fluorescence, 30 min at 4 °C, BSA 3% + PEG600 2%; FIGS. 4 and 5
Method: Tumor cell lines in exponential growth phase were cultured in complete culture medium with 10% FBS and grown in 75 cm^2 cell culture flasks. On the day of the experiment, cells were harvested and transferred in V-bottom culture plates, washed with PBS 1× supplemented with BSA 3% and then incubated with compounds of the present invention coupled with 680RD fluorochrome for 30 min at 4° C. in PBS 1× supplemented with BSA 3% and PEG600 2% at various dilutions (serial dilutions).
After the incubation, cells were washed in PBS 1× supplemented with BSA 3%.
After the incubation, cells were washed in PBS 1× supplemented with 3% BSA and then incubated for at least 15 min at 4° C. with DAPI (Thermo Fisher Scientific) in order to exclude dead cells and samples are directly acquired on a flow cytometer. Data generated on the flow cytometer was analyzed using Flowjo™ 10.6.0.

[1] = background statement; cited from earlier work
[2] = system: chondroitin-4-sulfate (C4S); assay: ELISA binding to purified GAGs (Example 1); conditions: SAV-HRP/TMB absorbance 450 nm, binding at pH 6.4 for 1 hour at 37 °C, FIG. 1
Method: (§1) ELISA plates were coated with various purified GAGs (Sigma, AMBIO) in PBS pH 7.4 for 2 hours at 37° C. Plates were blocked overnight at 4° C. with 200 μl of PBS pH 7.4, Tween 0.05%+BSA 3%+PEG400 2%, then washed twice with fresh buffer TSCM pH 6.4 ((Tris 20 mM, NaCl 150 mM, BSA 1%, Tween 0.05%, 2 mM MgCl2, 2 mM CaCl2). Binding of the different peptides at serial dilution was conducted in TSCMP (TSCM+2% (w/v) PEG 600) pH 6.4 for 1 hour at 37° C. (100 ul per well). Plates were washed three times with fresh TSCM pH 6.4 (200 ul per well) and SAV-HRP was added at a dilution of 1/8000 (100 ul per well) for 20 min at room temperature. Following 3 washes with PBS pH 7.4, 3,3′,5,5′-tetramethylbenzidine (TMB) substrate was added for 10 min (100 ul per well), protected from light. The reaction was stopped by addition of 100 μl of 1 M H2SO4 and the absorbance at 450 nm was measured.
(§2) The GAGs tested in this example were: C4Str: chondroitin-4-sulfate(tracheal); C4Sns: chondroitin-4-sulfate (nasal); CSPG: chondroitin sulfate proteoglycan; C6S: chondroitin-6-sulfate; HA: hyaluronic acid; HEP: heparin; HS: heparan sulfate; DS: dermatan sulfate; PBS: PBS negative control.

[3] = system: chondroitin-6-sulfate (C6S); assay: ELISA binding to purified GAGs (Example 1); conditions: SAV-HRP/TMB absorbance 450 nm, binding at pH 6.4 for 1 hour at 37 °C, FIG. 1
Method: as §1, §2

HCT 116 tumor xenograft = assay: In vivo biodistribution by Optical Imaging in HCT 116 xenografted mice (Example 9); design: species or system athymic nude mice
Method: For this purpose, HCT 116 cells were subcutaneously inoculated into the shoulder of athymic nude mice, and then the fluorescently-labelled compound was administered intravenously.
Optical Imaging was used to evaluate fluorescent signals in mice 0.5, 1, 3, 8, 24, and 72 hours after the administration of [(51-hS)2KS]2KC-Mal-680RD at 3 different concentrations. Flow cytometry was also used to evaluate the tumor target expression in xenografted mice.
HCT-116 cells were grown in McCoy's 5a medium supplemented with 10% foetal bovine serum, 100 IU/mL penicillin and 100 μg/mL streptomycin. The trypan-blue exclusion test was used to assess cell viability before cells inoculation. An aliquot (10 μL) of cell suspension was mixed with an equal amount of 0.4% trypan blue solution in PBS. 10 μL of the final solution was introduced in a counting chamber (hemocytometer). Viable cells appear round and bright, while damaged cells appear deep blue because of the incorporation of the trypan dye. Cell viability was expressed as % of viable cells over total cells). Cell cultures with viability of less than 70% were discarded.
HCT 116 cells were collected and washed two times with PBS. One million of HCT 116 cells were suspended in 1:1 Matrigel™: McCoy's 5a (total volume 0.15 mL) and then injected subcutaneously into the shoulder of each female mouse of groups A, B, C.
Animals were randomly assigned to the following experimental groups, Table 12.
All animals were dosed once according to Table 12 when the tumors reached approximately 500-600 mm^3. The solutions were injected intravenously via the tail vein at the administration volume of 100 μL. After each injection the tail vein was flushed with 100 μL of sterile saline solution. All animals were individually inspected before the treatment and 0.5, 1, 3, 8, 24, and 72 hours after treatment.
Clinical signs of the animals, such as posture, movement, breath, external body appearance, and any other relevant clinical sign were recorded. Mice of groups A, B, and C were anesthetized under 3-4% Sevoflurane gas anaesthesia (O2 95.0%) and imaged 0.5, 1, 3, 8, 24, and 72 hours post treatments. Mice were irradiated with filtered light of wavelength 675 nm and an image of emission light intensity was collected at 720 nm wavelength. Field of View, fstop, Binning and Exposition Time were determined during experimental setting. Regions of interest (ROIs) were selected by an operator over the acquired supine, dorsal, and side views. The signal intensity within the ROIs was determined automatically by the software. At the end of the experiment the mice were sacrificed and tumors were excised to measure ex vivo the fluorescent signal intensity.

[4] = system: HCT-116 cells (colon carcinoma); assay: Internalization in adherent cells, Trypan Blue quenching flow cytometry (Example 6); type: cell-based; conditions: 200 nM, 37 °C, FIG. 8
Method: Adherent cell lines in exponential growth phase were cultured in complete culture medium with 10% FBS and grown in flat-bottom culture plates. On the day of the experiment, cells were washed with culture medium supplemented with 3% BSA (Sigma-Aldrich) and then incubated with peptides coupled with A488 fluorochrome for various timepoints (from 5 to 160 min) at a single concentration or at various dilutions (serial dilutions) at a determined timepoint at 37° C. in the corresponding culture medium supplemented with 3% BSA. After the incubation, cells were washed in PBS 1× and detached using trypsin. Following trypsinization, cells were washed in PBS 1× supplemented with 3% BSA and then incubated for at least 15 min at 4° C. with DAPI (Thermo Fisher Scientific) in order to exclude dead cells. Right before acquisition on a flow cytometer, samples were divided in two. The first series of samples was acquired directly on a flow cytometer whereas the second series was supplemented with Trypan Blue in order to observe the internal fluorescence only. The percentage of internalization was further determined.
Fluorescence geometric mean of samples is standardised by subtracting fluorescence geometric mean of negative control (no compound) and the addition of 1.

[(51-hS)2K(PEG1)]2KC-Mal-680RD: Four copies of SEQ ID NO:37, structure comprising SEQ ID NO:7 (n is 1), L-Cys conjugated to IRDye 680RD Maleimide (chain 1 RYF[dV]RI[Orn]YR; chain 2 [dH]SK[AEA]KC(IRDye 680RD maleimide); also: four peptide copies on branched Lys scaffold, further copies not in the chains)
binding on CHO-K1 cells compared with [(51-hS)2KS]2KC-Mal-680RD (CHO-K1 (WT) cells): increased binding

[(51-hS)2K(PEG5)]2KC-Mal-680RD: Four copies of SEQ ID NO:37, structure comprising SEQ ID NO:7 (n is 5), L-Cys conjugated to IRDye 680RD Maleimide (chain 1 RYF[dV]RI[Orn]YR; chain 2 [dH]SK[NH(CH2CH2O)5CH2CO]KC(IRDye 680RD maleimide); also: four peptide copies on branched Lys scaffold, further copies not in the chains)
binding on CHO-K1 cells compared with [(51-hS)2KS]2KC-Mal-680RD (CHO-K1 (WT) cells): increased binding

CCc1c2c(nc3ccc(O)cc13)-c1cc3c(c(=O)n1C2)COC(=O)[C@]3(O)CC [SN-38]
activity relative to irinotecan [1]: 1000 times
potency relative to irinotecan in in vitro cytotoxicity assays [1]: 2- to 2000 fold

RYFvRIOYR (RYF[dV]RI[Orn]YR) [SEQ ID NO:37, Peptide moiety 51]
binding affinity to C4S [2]: binds specifically
binding affinity to C6S [3]: binds specifically

I: Ac-RYF[dV]R[ξIle][Orn]YR[dH]SKSKC(X1)-NH2 / II: Ac-RYF[dV]RI[Orn]YR[dH]SKS / III: Ac-RYF[dV]RI[Orn]YR[dH]S / IV: Ac-RYF[dV]RI[Orn]YR[dH]S (amide I:12-III:C, I:14-II:C, II:12-IV:C) [[(51-hS)2KS]2KC-Mal-680RD]
tumor signal of group B relative to other groups (HCT 116 tumor xenograft; group B 20 nmol/mouse i.v. vs 4 nmol/mouse, dependent on dose and on blocking compound): higher tumor signal
tumor to muscle ratio of fluorescence signal (HCT 116 tumor xenograft; groups A and B, all imaging times, FIGS. 12 and 13): almost two-fold
fluorescence signal (Average Radiant Efficiency) in the abdominal region, mainly liver and intestine (HCT 116 tumor xenograft; groups A, B, C (4, 20, 4 + 16 unlabeled nmol/mouse i.v.), imaging 0.5-72 h, independent of dose or blocking compound): strong signal
fluorescence signal (Average Radiant Efficiency) in the tumor (HCT 116 tumor xenograft; tumor of all groups, mainly groups A and B, i.v., imaging 0.5-72 h): presence of a signal

I: Ac-RYF[dV]R[ξIle][Orn]YR[dH]SKSKC(X3)-NH2 / II: Ac-RYF[dV]RI[Orn]YR[dH]SKS / III: Ac-RYF[dV]RI[Orn]YR[dH]S / IV: Ac-RYF[dV]RI[Orn]YR[dH]S (amide I:12-III:C, I:14-II:C, II:12-IV:C) [[(51-hS)2KS]2KC-Mal-Alexa488]
extent of internalisation in HCT-116 cells ([4]; time course up to 160 min): 85%
time after which 70% is internalised in HCT-116 cells [4]: 40 min
